Source: the supplement of paper PMC5908809

Columns and labels:
SNK-6 (IL-2 2.5 ng/mL) [1] = experiment: drug sensitivity score (DSS) (DSS units); higher = more sensitive; extreme values may be limits of the assay; conditions: 72 h
NK-92 (IL-2 2.5 ng/mL) [2] = experiment: as above; conditions: 72 h
[3] = test system: normal primary NK cells, pool 3 (3 donors) (IL-2 2.5 ng/mL); experiment: as above; conditions: 72 h
[4] = test system: normal primary NK cells, pool 1 (3 donors) (IL-2 2.5 ng/mL); experiment: as above; conditions: 72 h
NK-YS (IL-2 2.5 ng/mL) [5] = experiment: as above; conditions: 72 h
IMC-1 (IL-2 20 ng/mL) [6] = experiment: as above; conditions: 72 h
YT (IL-2 2.5 ng/mL) [7] = experiment: as above; conditions: 72 h
NKL (IL-2 2.5 ng/mL) [8] = experiment: as above; conditions: 72 h
DERL-7 (IL-2 2.5 ng/mL) [9] = experiment: as above; conditions: 72 h
[10] = test system: normal primary NK cells, pool 1 (3 donors), resting (IL-2 0 ng/mL); experiment: as above; conditions: 72 h
KAI3 (IL-2 2.5 ng/mL) [11] = experiment: as above; conditions: 72 h
[12] = test system: normal primary NK cells, pool 2 (3 donors) (IL-2 2.5 ng/mL); experiment: as above; conditions: 72 h
KHYG-1 (IL-2 2.5 ng/mL) [13] = experiment: as above; conditions: 72 h
[14] = test system: normal NK cells expanded with K562-aAPC; experiment: as above; conditions: 72 h; IL-2 2.5 ng/mL
Description: (§1)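 Drug sensitivity and resistance testing on K562-aAPC-expanded normal NK cells: 5 concentrations (10-fold steps over a 10,000-fold range), 72 h at 37 °C, viability by CellTiter-Glo normalised to DMSO and benzethonium chloride controls; DSS from the fitted curve.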

SNK-6 (IL-2 2.5 ng/mL) [15] = experiment: percent inhibition of viability; higher = more inhibition; conditions: 72 h
NK-92 (IL-2 2.5 ng/mL) [16] = experiment: as above; conditions: 72 h
[17] = test system: normal primary NK cells, pool 3 (3 donors) (IL-2 2.5 ng/mL); experiment: as above; conditions: 72 h
[18] = test system: normal primary NK cells, pool 1 (3 donors) (IL-2 2.5 ng/mL); experiment: as above; conditions: 72 h
NK-YS (IL-2 2.5 ng/mL) [19] = experiment: as above; conditions: 72 h
IMC-1 (IL-2 20 ng/mL) [20] = experiment: as above; conditions: 72 h
YT (IL-2 2.5 ng/mL) [21] = experiment: as above; conditions: 72 h
NKL (IL-2 2.5 ng/mL) [22] = experiment: as above; conditions: 72 h
DERL-7 (IL-2 2.5 ng/mL) [23] = experiment: as above; conditions: 72 h
[24] = test system: normal primary NK cells, pool 1 (3 donors), resting (IL-2 0 ng/mL); experiment: as above; conditions: 72 h
KAI3 (IL-2 2.5 ng/mL) [25] = experiment: as above; conditions: 72 h
[26] = test system: normal primary NK cells, pool 2 (3 donors) (IL-2 2.5 ng/mL); experiment: as above; conditions: 72 h
KHYG-1 (IL-2 2.5 ng/mL) [27] = experiment: as above; conditions: 72 h
[28] = test system: normal NK cells expanded with K562-aAPC; experiment: as above; conditions: 72 h, IL-2 2.5 ng/mL
Description: as §1

O=C(Nc1ccncc1)C(=O)c1cn(Cc2ccc(Cl)cc2)c2ccccc12 [Indibulin] (max concentration tested 10000 nM)
Conditions	drug sensitivity score
DERL-7 (IL-2 2.5 ng/mL) [9]	10.5
IMC-1 (IL-2 20 ng/mL) [6]	17.3
KAI3 (IL-2 2.5 ng/mL) [11]	14.6
KHYG-1 (IL-2 2.5 ng/mL) [13]	24
NK-92 (IL-2 2.5 ng/mL) [2]	24.3
NK-YS (IL-2 2.5 ng/mL) [5]	18.2
NKL (IL-2 2.5 ng/mL) [8]	21.9
SNK-6 (IL-2 2.5 ng/mL) [1]	35
YT (IL-2 2.5 ng/mL) [7]	20.8
[3]	0.07
[4]	0
[10]	0.77
[12]	0
[14]	5.97

percent inhibition of viability [%]
Conditions	1 nM	10 nM	100 nM	1000 nM	10000 nM
DERL-7 (IL-2 2.5 ng/mL) [23]	0.04	6.67	4.75	46.8	89.2
IMC-1 (IL-2 20 ng/mL) [20]	-3.14	0.7	4.01	92.4	98.2
KAI3 (IL-2 2.5 ng/mL) [25]	3.69	14.7	33	55.2	49.6
KHYG-1 (IL-2 2.5 ng/mL) [27]	-4.72	2.71	48.2	102	96
NK-92 (IL-2 2.5 ng/mL) [16]	-6.37	25.8	53.4	90.8	88.7
NK-YS (IL-2 2.5 ng/mL) [19]	-6.38	5.31	41.8	72.1	62.7
NKL (IL-2 2.5 ng/mL) [22]	-12.2	-11.9	51.8	86.5	83.6
SNK-6 (IL-2 2.5 ng/mL) [15]	23.1	63.2	78.4	84	80.9
YT (IL-2 2.5 ng/mL) [21]	-4.48	2.55	34.7	90.4	92
[17]	-1.93	-8.2	1.19	5.32	11.4
[18]	-10.2	-6.02	-8.45	-10.4	-3.72
[24]	-7.61	-0.32	20.6	8.83	10.7
[26]	-0.63	-6.55	0.37	1.94	2.69
[28]	0.45	-0.15	0.03	26.6	49.8
